Data: ChEMBL document CHEMBL4680174, “Synthesis, biological evaluation and in silico modeling of novel integrase strand transfer inhibitors (INSTIs)” (Eur J Med Chem, 2020)
≈ marks a conversion by molar mass, not a printed value.

How the values were obtained:
[1] = test system: Human immunodeficiency virus 1; assay: Antiviral activity against HIV1 3B infected in human CEM-SS cells assessed as reduction in cytopathic effect after 4 days; format: functional, organism-based
[2] = Cytotoxicity against human CEM-SS cells assessed as reduction in cell viability by XTT assay; format: cell-based
[3] = Thermodynamic solubility of compound in water at 2 mg after 24 hrs; format: physicochemical; settings: read-out: Therm_solubility
[4] = Thermodynamic solubility of compound in plON buffer at 2 mg after 24 hrs; format: physicochemical; settings: read-out: Therm_solubility
[5] = Selectivity index, ratio of CC50 for human CEM-SS cells to EC50 for Antiviral activity against HIV1 3B infected in human CEM-SS cells; format: toxicity, cell-based; settings: for selectivity ratio: CEM-SS cells, read-out: Ratio CC50/EC50
[6] = test system: Human immunodeficiency virus 1; assay: Antiviral activity against HIV1 3B; format: functional, organism-based; settings: Human immunodeficiency virus 1, 3B
[7] = test system: Human immunodeficiency virus 1; assay: Antiviral activity against HIV1 3B infected in human CEM-SS cells assessed as reduction in cytopathic effect at 2 nM after 4 days; format: functional; design: scale not given: the % may be the effect or the level left; settings: time 4 day
[8] = Human immunodeficiency virus 1, 3B, CEM-SS, 96 h

## C[C@H]1CO[C@@H]2Cn3cc(C(=O)NCc4ccncc4F)c(=O)c(O)c3C(=O)N12
[1]; [8]
  EC50: > 10 nM
[2]
  CC50: > 10 nM
[3]
  solubility thermodynamic at 24 h: 78 µg/mL (≈ 201 µM)
[4]
  solubility thermodynamic at 24 h: 91 µg/mL (≈ 234 µM)

## Cc1cc2c(cc1CNC(=O)c1cn3c(c(O)c1=O)C(=O)N1[C@@H](C)CO[C@@H]1C3)OCCO2
[1]; [8]
  EC50: > 10 nM
[2]
  CC50: > 10 nM
[3]
  solubility thermodynamic at 24 h: 56 µg/mL (≈ 127 µM)
[4]
  solubility thermodynamic at 24 h: 70 µg/mL (≈ 159 µM)

## C[C@H]1CO[C@@H]2Cn3cc(C(=O)NCc4c(F)cncc4F)c(=O)c(O)c3C(=O)N12
[1]; [8]
  EC50: 2.63 nM
[2]
  CC50: > 10 nM
[5]
  selectivity ratio: > 3.8
[3]
  solubility thermodynamic at 24 h: 347 µg/mL (≈ 854 µM)
[4]
  solubility thermodynamic at 24 h: 380 µg/mL (≈ 935 µM)

## C[C@H]1CO[C@@H]2Cn3cc(C(=O)NCc4cc5c(cc4Br)OCO5)c(=O)c(O)c3C(=O)N12
[1]; [8]
  EC50: 1.93 nM
[2]
  CC50: > 10 nM
[5]
  selectivity ratio: > 5.2
[3]
  solubility thermodynamic at 24 h: 21 µg/mL (≈ 42.7 µM)
[4]
  solubility thermodynamic at 24 h: 21 µg/mL (≈ 42.7 µM)

## C[C@@H]1CCO[C@H]2Cn3cc(C(=O)NCc4ccc(F)nc4F)c(=O)c(O)c3C(=O)N12
[1]; [8]
  EC50: 5.15 nM
[2]
  CC50: > 10 nM
[5]
  selectivity ratio: > 1.9
[3]
  solubility thermodynamic at 24 h: 57 µg/mL (≈ 136 µM)
[4]
  solubility thermodynamic at 24 h: 80 µg/mL (≈ 190 µM)

## C[C@@H]1CCO[C@H]2Cn3cc(C(=O)NCc4ccc(F)cc4F)c(=O)c(O)c3C(=O)N12 [DOLUTEGRAVIR]
[6]
  EC50: 1.1 nM

## C[C@H]1CO[C@@H]2Cn3cc(C(=O)NCc4ccc(F)cc4F)c(=O)c(O)c3C(=O)N12 [CABOTEGRAVIR]
[7]
  Activity: >50%

## C[C@H]1CO[C@@H]2Cn3cc(C(=O)NCc4ccc(F)nc4F)c(=O)c([O-])c3C(=O)N12.[Na+]
[1]; cem-ss
  EC50: 4.8 nM
[5]
  Ratio CC50/EC50: > 2.08
[3]
  solubility thermodynamic at 24 h: 2680 µg/mL
[4]
  solubility thermodynamic at 24 h: 1680 µg/mL
